Measured values published in US9353088B2, “Crystalline pharmaceutical and methods of preparation and use thereof” (SARcode Bioscience Inc., priority 2009, dated 2016).
“Also recorded” adds a separate entry of the source.

Assays:
[1] = test system: Chinese hamster ovary (CHO) cells; assay: In vitro chromosomal aberration assay in CHO cells; assay type: cell-based; settings: with and without metabolic activation; except single toxic dose 3500 μg/mL without activation
From the text: The biological relevance of this response is equivocal due to cytotoxicity.

[2] = Respiratory function, single IV bolus, head-out plethysmograph; assay type: in vivo, rats; settings: any dose
[3] = test system: attachment of Jurkat cells to ICAM-1; assay: T-cell adhesion assay using Jurkat cells; assay type: cell-based, human; settings: versus positive control
Method: A reported LFA-1 antagonist was used as the positive control.
Jurkat cells were labeled with an 8 μM solution of BCECF-AM (2′,7′-bis-(2-carboxyethyl)-5-(and -6)-carboxyfluorescein) in growth media at room temperature for 15 minutes. […] Non-adherent cells were removed by washing and centrifugation at 100 g for 1 minute. Adherent cells were determined as adherent fluorescent units on a fluorescent plate reader.

[4] = Plasma PK after single IV bolus dose; assay type: in vivo; settings: rat, rats, read-out: clearance rate
From the text: The systemic clearance rate can be calculated by various means known in the art. For example, the clearance rate for a drug may be calculated from an analysis of the drug concentration time profile for the rate of disappearance of a drug from the plasma following administration of the formulation, for example after a single intravenous injection. One of skill in the art could use a variety of methods to calculate and determine systemic clearance rates. For example, the rate of disappearance may be measured by analysis of the absorption, distribution, metabolism and excretion of a radiolabelled form of a drug or other means of measuring the level of drug in plasma, such as gas chromatography (Sapirstein et al., 1955, Am. Jour. Physiol., Vol. 181, pp. 330; U.S. Pat. No. 4,908,202), liquid chromatography-mass spectrometry methods (LCMS) or HPLC methods. As another example, the clearance rate may be calculated by introducing the formulation to the subject by continuous intravenous infusion until an equilibrium is reached at which the plasma level of the substance (as determined by analysis of plasma samples) is steady, at which point the infusion rate is equal to the rate of clearance from plasma (Earle et al., 1946, Proc. Soc. Exp. Biol. Med., Vol. 62, pp. 262 ff.) […]

[5] = Phase 1 clinical trial of Ophthalmic Solution, safety and tolerability; assay type: in vivo, human
From the text: The objectives of the trial were to measure safety and tolerability, and pharmacokinetics in tear and plasma. The dosing schedule (OU; Oculus Uterque (each eye or both eyes)) was divided into 3 periods, each separated by a 72-hour wash out interval: once/day×1 day (drug one eye; placebo fellow eye), twice/day×10 days, and thrice/day×10 days, 14-day observation. Slit lamp examination of the eye, BCVA (Best Corrected Visual Acuity), STTs (Schirmer Tear Test), TBUT (Tear Break-Up Time), IOP (Intraocular pressure) were assessed at screening and the beginning and end of each period. For each cohort, masked safety data was reviewed by a Safety Committee prior to allowing dose escalation of the next cohort. A total of 2856 doses (102 drops/subject) were administered over 1148 total subject study days (41 study days/subject) in 56 eyes. All subjects in all cohorts completed the study, and no study drug doses were missed.

[6] = Plasma PK after single topical ocular instillation; settings: post-dose
[7] = Cardiovascular effects in conscious telemetry-instrumented dogs, IV bolus; assay type: in vivo, dogs (beagles); settings: IV bolus injection
[8] = Single dose ocular and IV ADME with [14C]-compound; assay type: in vivo, dogs
From the text: No differences in results from male and female dogs were observed.

[9] = rabbit, in vivo
[10] = 13-week ocular toxicity study with 4-week recovery; settings: 13-week ocular (3%)
[11] = Single dose ocular tolerance; settings: single dose ocular tolerance (10%)
LFA-1 = target: T1, LFA-1 (Homo sapiens, UniProt P05107+P20701); assay: in vitro cell assays (cell attachment and SEB IL-2 release); assay type: cell-based
T1 construct: LFA-1 levels in in vitro cell assays (cell attachment and SEB IL-2 release); endogenous in cells; host or cells: human T-cell lines (HuT 78 / Jurkat) and human PBMC

[12] = test system: micronuclei in polychromatic erythrocytes (PCE); assay: In vivo mouse bone marrow micronucleus assay; parameters: species or system CD-1 (ICR) BR mice; settings: repeated IV administrations

T1 sequence (P20701 26-1170): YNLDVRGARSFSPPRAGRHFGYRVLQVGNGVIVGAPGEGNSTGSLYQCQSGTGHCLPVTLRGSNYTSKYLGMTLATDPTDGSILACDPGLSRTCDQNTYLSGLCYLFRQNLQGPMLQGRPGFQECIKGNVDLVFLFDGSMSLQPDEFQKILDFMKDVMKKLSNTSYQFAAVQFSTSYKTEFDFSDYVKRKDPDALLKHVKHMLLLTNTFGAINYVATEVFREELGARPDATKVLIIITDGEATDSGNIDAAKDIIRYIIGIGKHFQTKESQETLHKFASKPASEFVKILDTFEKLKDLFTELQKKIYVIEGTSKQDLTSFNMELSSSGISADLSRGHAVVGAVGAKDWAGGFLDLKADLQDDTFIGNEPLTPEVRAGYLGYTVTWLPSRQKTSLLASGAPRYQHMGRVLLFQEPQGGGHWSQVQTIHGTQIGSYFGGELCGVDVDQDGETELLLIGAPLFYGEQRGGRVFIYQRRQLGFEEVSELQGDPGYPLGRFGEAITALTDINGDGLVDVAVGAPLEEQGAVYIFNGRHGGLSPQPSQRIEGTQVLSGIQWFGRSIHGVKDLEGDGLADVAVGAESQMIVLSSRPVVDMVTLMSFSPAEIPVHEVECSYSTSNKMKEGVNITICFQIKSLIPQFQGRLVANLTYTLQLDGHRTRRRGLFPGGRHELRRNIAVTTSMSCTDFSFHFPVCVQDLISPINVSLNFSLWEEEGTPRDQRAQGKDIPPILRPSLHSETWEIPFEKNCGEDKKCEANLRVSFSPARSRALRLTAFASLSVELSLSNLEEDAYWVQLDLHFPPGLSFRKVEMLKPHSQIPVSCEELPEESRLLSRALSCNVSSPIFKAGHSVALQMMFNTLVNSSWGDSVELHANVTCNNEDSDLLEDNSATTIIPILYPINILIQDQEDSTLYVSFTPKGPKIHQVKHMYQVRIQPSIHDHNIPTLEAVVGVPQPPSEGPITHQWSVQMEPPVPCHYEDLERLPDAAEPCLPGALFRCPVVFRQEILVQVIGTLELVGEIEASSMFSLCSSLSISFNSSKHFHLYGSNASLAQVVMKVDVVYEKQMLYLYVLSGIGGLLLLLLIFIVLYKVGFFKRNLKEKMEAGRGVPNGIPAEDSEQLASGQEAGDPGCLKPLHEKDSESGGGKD
T1 sequence (P05107 23-769): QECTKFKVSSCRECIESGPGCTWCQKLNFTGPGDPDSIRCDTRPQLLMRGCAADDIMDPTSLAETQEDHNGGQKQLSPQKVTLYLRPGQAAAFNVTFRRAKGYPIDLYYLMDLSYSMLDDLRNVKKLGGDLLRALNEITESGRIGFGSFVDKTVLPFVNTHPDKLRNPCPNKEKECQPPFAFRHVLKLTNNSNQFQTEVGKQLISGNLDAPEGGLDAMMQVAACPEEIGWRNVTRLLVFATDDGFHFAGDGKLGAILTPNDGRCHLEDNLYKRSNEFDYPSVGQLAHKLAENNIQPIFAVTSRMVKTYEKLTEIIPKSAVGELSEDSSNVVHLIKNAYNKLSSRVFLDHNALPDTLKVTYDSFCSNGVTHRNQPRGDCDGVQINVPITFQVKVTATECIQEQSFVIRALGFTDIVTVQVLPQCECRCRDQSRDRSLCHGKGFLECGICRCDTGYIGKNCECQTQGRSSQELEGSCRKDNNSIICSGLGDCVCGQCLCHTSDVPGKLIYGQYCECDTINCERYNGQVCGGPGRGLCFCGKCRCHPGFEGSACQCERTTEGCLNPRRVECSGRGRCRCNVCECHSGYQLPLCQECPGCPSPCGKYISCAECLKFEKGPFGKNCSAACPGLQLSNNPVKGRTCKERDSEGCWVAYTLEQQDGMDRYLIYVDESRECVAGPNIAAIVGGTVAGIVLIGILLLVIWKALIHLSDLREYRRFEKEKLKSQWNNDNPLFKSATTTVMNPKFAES

**Q.** Which results are given for `CS(=O)(=O)c1cccc(C[C@H](NC(=O)c2c(Cl)cc3c(c2Cl)CCN(C(=O)c2ccc4ccoc4c2)C3)C(=O)O)c1` [Compound of Formula I]?
**A.** induction of structural chromosomal aberrations [1]: negative; respiratory function (tidal volume, respiration rate, minute volume) [2]: No adverse changes in respiratory function or adverse effects; dose response curve and IC50, Jurkat cell attachment [3]: comparable to that of the known direct competitive LFA-1 antagonist; clearance [4]: > 100 mL/min/kg; adverse events considered related to administration ([5]; any dose strength (0.1-5%) or dose regimen, healthy adults): No deaths, discontinuations, serious or severe ocular or non-ocular AEs; total lymphocyte, CD3, CD4, CD8 cell counts ([5]; throughout the trial): no evidence of lymphocyte or neutrophil suppression; overall safety and tolerability ([5]; topical ocular instillation, dose strengths up to 5% TID): safe and well-tolerated; time of maximum plasma concentration [6]: about 0.25 hrs; effects on electrocardiography or hemodynamic parameters [7]: No effects; levels in conjunctiva/cornea ([8]; for 16 hrs, dog): greater than 1 micromolar; metabolites in pooled plasma, urine and fecal homogenate ([8]; up to 168 hrs post-dose): no metabolites detected; level in vitreous fluid [9]: not detected; NOAEL [10]: 1.05 mg/eye/3× per day; NOAEL [11]: 3.5 mg/eye/3× per day; IC50 (LFA-1): 2 nM; bone marrow micronucleus result [12]: no effect; also recorded: negative
